Measured values taken from ChEMBL document CHEMBL1201862, “PubChem BioAssay data set” (2004).
The source made the active and inactive calls.

What was measured:
[1] = Luminescence Cell-Based Dose Confirmation HTS to Identify Activators of 5'UTR Stem-Loop Driven Alpha-Synuclein mRNA Translation in H4 Neuroglioblastoma Cells. [Related pubchem assays: 1829 (Project Summary), 1814 (Primary HTS)]; type: functional
H4 = assay: Luminescence Cell-Based Dose Response HTS to Identify Activators of 5'UTR Stem-Loop Driven Prion Protein mRNA Translation in H4 Neuroglioblastoma Cells. [Related pubchem assays: 1829 (Project Summary), 1814 (Primary HTS)]; type: functional; settings: Homo sapiens
[2] = Luminescence Cell-Based Dose Response HTS to Identify Activators of Luciferase Translation or Activity in H4 […] Cells. [Related pubchem assays: 1829 (Project Summary), 1814 (Primary HTS)]; type: functional
[3] = HIV-1 Vif–A3G interaction blockers – biochemical, TR-FRET, GST-Vif 1-94, biotin-A3G peptide, dose response retest, primary screen (AID 1117319); type: functional;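 further: TR-FRET signal of purified GST-Vif binding a biotinylated A3G peptide; inhibitors lower the FRET signal by blocking Vif and A3G binding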
[4] = biological target: T1, Tyrosine-protein phosphatase non-receptor type 7 (Homo sapiens, UniProt P35236); assay: HePTP tyrosine phosphatase activity blockers – biochemical, absorbance, leukemia target, primary screen (AID 521); type: functional
T1 sequence (P35236 whole entry): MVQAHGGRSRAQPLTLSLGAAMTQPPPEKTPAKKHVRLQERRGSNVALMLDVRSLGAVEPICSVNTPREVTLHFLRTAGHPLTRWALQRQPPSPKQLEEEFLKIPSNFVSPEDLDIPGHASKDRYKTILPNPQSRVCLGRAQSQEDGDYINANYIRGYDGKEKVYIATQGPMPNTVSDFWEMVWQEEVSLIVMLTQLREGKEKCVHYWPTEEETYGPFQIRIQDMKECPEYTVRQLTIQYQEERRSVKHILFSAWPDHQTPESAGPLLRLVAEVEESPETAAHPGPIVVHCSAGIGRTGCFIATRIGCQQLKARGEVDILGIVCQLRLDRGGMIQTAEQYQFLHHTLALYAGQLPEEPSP

[5] = rise of 4N DNA cells, HeLa – IC50, dose response (AID 1117351); type: functional, cell-based
[6] = Reduced DLD-1 viability, concentration-response, CellTiter-Glo luminescence (AID 1117352); type: functional
[7] = rise of 2N DNA cells, HeLa – IC50, dose response (AID 1117349); type: functional, cell-based
[8] = HCT116 cell viability decrease, GSK3B pretreatment – CellTiter-Glo, IC50, dose response (AID 1117339); type: functional; settings: HCT-116
[9] = cytotoxicity toward HT-29 cells – cell-based, CellTiter-Glo luminescence, IC50, dose response (AID 1117330); type: functional
[10] = RKO cell viability reduction, dose response, CellTiter-Glo luminescence (AID 1117322); type: functional
[11] = SNU-C1 cell viability reduction, dose response, CellTiter-Glo luminescence (AID 1117323); type: functional, cell-based
[12] = cytotoxicity toward HCT116 cells – cell-based, CellTiter-Glo luminescence, IC50, dose response (AID 1117332); type: functional; settings: HCT-116
[13] = cytotoxicity toward Colo320 cells – cell-based, CellTiter-Glo luminescence, IC50, dose response (AID 1117334); type: functional; settings: COLO 320
[14] = OVCAR8 cell viability loss – plate reader, dry powder samples, PAX8 project, dose response (AID 743197); type: functional, cell-based; settings: OVCAR-8
Paired box protein Pax-8 = Paired box protein Pax-8 (Homo sapiens, UniProt Q06710); assay: PAX8 transcriptional activity inhibition in RMG-I – RMG-I cells, luciferase, cherry-pick, dose response (AID 687027); type: functional, cell-based;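 further: luciferase reporter driven by Pax8 target thyroperoxidase promoter measured by SteadyGlo luminescence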
[15] = OVCAR-3 cell viability loss – plate reader, dry powder samples, PAX8 inhibitor project, dose response (AID 743044); type: functional, cell-based
[16] = Dd2 parasite growth inhibition in erythrocytes – SYBR Green, dry powder samples, set 9, dose response (AID 1159568); type: functional, cell-based
[17] = HPDE-C7 pancreatic duct cell viability loss – fluorescence, HTS (AID 430); type: functional, cell-based; settings: Homo sapiens
[18] = viability of HCT116 lacking mutant beta-catenin – cell-based, human colon tumor, dose response (AID 1045); type: functional;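 further: HCT116 colon tumor cells with beta catenin knocked out; cells exposed to compound for 60 hours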
[19] = viability of uninfected HEp-2 cells – cell-based, HTS, cytotoxicity control for RSV inhibitor project, dose response (AID 2410); type: functional; settings: human respiratory syncytial virus
[20] = viability loss of HPDE-C7K cells – cell-based, fluorescence, HTS, primary screen (AID 431); type: functional; settings: Homo sapiens
[21] = biological target: T2, DNA repair protein RAD52 homolog (Homo sapiens, UniProt P43351); type: functional, biochemical
T2 sequence (P43351 whole entry): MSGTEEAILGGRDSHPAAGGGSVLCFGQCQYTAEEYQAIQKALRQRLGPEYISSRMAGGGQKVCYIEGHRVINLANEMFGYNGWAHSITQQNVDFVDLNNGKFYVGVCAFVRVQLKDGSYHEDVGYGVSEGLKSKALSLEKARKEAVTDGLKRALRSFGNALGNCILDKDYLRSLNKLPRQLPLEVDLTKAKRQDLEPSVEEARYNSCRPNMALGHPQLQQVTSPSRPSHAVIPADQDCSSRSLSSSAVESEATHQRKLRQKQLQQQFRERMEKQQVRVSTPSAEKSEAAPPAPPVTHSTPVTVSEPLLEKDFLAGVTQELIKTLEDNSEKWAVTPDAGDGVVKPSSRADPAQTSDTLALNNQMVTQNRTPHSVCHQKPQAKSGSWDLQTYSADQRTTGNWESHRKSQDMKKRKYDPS

[22] = viability of PTEN-deleted HCT116 cells – cell-based, HCT116 PTEN knockout, dose response (AID 1047); type: functional;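 further: HCT116 colon tumor cells with PTEN knocked out; cells exposed to compound for 60 hours before readout; potency for loss of cell viability measured by luminescence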
[23] = biological target: Dual specificity tyrosine-phosphorylation-regulated kinase 1A (Rattus norvegicus, UniProt Q63470); type: biochemical, Homo sapiens

Chain of Paired box protein Pax-8 (Q06710 whole entry): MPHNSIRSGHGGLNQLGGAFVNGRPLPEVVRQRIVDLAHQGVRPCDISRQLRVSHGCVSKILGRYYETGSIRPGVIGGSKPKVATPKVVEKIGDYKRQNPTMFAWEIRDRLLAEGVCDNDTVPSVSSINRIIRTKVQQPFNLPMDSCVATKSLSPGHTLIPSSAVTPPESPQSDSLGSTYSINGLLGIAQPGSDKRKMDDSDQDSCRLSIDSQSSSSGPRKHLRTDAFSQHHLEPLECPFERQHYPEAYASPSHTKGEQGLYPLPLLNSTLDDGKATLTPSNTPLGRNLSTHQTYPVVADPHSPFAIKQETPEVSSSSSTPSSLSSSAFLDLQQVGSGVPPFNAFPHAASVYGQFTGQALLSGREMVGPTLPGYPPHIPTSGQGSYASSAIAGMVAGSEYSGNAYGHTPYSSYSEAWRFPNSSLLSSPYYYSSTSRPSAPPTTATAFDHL

CCCn1c(O)nnc1Sc1nnnn1-c1ccccc1
EC50 [1]: 40.1 µM (active)
EC50 (H4): > 120 µM (not active)
EC50 [2]: 6.75 µM (active)
IC50 [3]: > 100 µM (active)

COc1ccccc1N1CCN(S(=O)(=O)c2c[nH]cn2)CC1
IC50 [4]: > 100 µM (not active)

Nc1nc(Cl)nc2c1ncn2[C@@H]1O[C@H](CO)[C@@H](O)[C@@H]1F [CLOFARABINE]
IC50 [5]: > 10 µM (inactive)
IC50 [6]: 0.164 µM (active)
IC50 [7]: > 10 µM (inactive)
IC50 [8]: 0.001 µM (active)
IC50 [9]: > 20 µM (inactive)
IC50 [10]: 0.001 µM (active)
IC50 [11]: > 20 µM (inactive)
IC50 [12]: 0.001 µM (active)
IC50 [13]: > 20 µM (inactive)

CC(C)(C)OC(=O)c1c(N)n(Cc2ccco2)c2nc3ccccc3nc12
IC50 [4]: > 100 µM (not active)

C[C@@H]1CN([C@H](C)CO)C(=O)c2cc(NC(=O)Nc3ccc(F)cc3)ccc2O[C@@H](C)CCCCO[C@H]1CN(C)C(=O)Nc1ccc(C(F)(F)F)cc1
AC50 [14]: 39.3 µM (active)
AC50 (Paired box protein Pax-8): 5.23 µM (active)
AC50 [15]: 35 µM (active)

O=C(C[C@@H]1C[C@H]2c3cc(NC(=O)c4ccc5c(c4)OCO5)ccc3O[C@H]2[C@H](CO)O1)NCc1ccc(Oc2ccccc2)cc1
AC50 [16]: 25.6 µM (active)

CN1CCN(c2cc3c(c4c2[nH]c2ccccc24)C(=O)CC(C)(C)C3)CC1
EC50 [17]: 13.2 µM (active)
EC50 [18]: 10.4 µM (active)
CC50 [19]: 15.6 µM (active)
EC50 [20]: 12.9 µM (active)
AC50 [21]: 9.48 µM (active)
EC50 [22]: 11.4 µM (active)
AC50 [23]: 7.77 µM (active)
